Data reported in ChEMBL document CHEMBL4765439, “Identification of the subtype-selective Sirt5 inhibitor balsalazide through systematic SAR analysis and rationalization via theoretical investigations” (Eur J Med Chem, 2020).
Each block holds one compound with its values, some of them ahead of it. Activity calls are given as the source filed them. The calls are words filed in the database; no cut-off is given here.

How the values were obtained:
[1] = target: T1, NAD-dependent protein deacetylase sirtuin-1 (Homo sapiens) (UniProt Q96EB6); experiment: (§1) Inhibition of recombinant human SIRT1 (133 to 747 residues) expressed in Escherichia coli BL21(DE3) at 50 uM using ZMAL as substrate incubated for 4 hrs in presence of NAD+ followed by incubation with trypsin for 20 mins by trypsin-coupled assay based homogenous fluorescence analysis relative to control; conditions: time 260.0 min
T1 sequence (whole entry): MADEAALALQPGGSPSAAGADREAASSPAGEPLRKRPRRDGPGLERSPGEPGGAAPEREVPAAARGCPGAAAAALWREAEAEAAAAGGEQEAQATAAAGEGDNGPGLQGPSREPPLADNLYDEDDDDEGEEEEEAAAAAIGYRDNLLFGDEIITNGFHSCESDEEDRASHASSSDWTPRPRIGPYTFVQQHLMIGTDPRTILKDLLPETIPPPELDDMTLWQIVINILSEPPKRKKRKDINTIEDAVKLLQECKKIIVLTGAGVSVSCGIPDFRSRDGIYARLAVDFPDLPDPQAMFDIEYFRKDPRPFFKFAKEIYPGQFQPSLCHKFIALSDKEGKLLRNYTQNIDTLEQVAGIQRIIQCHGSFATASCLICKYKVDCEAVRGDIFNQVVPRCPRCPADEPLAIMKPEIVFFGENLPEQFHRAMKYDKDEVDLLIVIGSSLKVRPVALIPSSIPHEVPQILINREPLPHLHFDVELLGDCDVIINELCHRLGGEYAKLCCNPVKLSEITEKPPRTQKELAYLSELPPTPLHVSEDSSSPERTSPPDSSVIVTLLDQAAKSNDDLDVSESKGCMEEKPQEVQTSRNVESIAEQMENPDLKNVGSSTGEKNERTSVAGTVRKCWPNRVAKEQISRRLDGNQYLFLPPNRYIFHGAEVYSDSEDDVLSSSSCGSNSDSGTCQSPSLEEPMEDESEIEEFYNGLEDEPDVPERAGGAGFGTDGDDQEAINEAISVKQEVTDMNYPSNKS

[2] = target: T2, NAD-dependent protein deacetylase sirtuin-2 (Homo sapiens) (UniProt Q8IXJ6); experiment: as §1, with “SIRT2 (25” for “SIRT1 (133”, “389” for “747”; conditions: time 260.0 min
T2 sequence (whole entry): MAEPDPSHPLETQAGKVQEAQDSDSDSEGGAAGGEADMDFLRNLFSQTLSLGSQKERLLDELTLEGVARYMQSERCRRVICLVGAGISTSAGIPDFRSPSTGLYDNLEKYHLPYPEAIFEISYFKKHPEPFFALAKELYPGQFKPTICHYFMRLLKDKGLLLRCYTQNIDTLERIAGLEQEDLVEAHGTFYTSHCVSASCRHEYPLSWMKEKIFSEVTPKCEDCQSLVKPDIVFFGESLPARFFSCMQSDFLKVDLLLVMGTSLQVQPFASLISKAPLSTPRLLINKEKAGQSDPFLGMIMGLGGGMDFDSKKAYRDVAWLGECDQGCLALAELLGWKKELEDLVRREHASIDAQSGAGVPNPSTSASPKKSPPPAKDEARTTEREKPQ

[3] = target: T1, NAD-dependent protein deacetylase sirtuin-1 (Homo sapiens); experiment: as §1, with “100” for “50”; conditions: time 260.0 min
[4] = target: T3, NAD-dependent protein deacetylase sirtuin-3, mitochondrial (Homo sapiens) (UniProt Q9NTG7); experiment: as §1, with “SIRT3 (101” for “SIRT1 (133”, “399” for “747”, “100” for “50”; conditions: time 260.0 min
T3 sequence (whole entry): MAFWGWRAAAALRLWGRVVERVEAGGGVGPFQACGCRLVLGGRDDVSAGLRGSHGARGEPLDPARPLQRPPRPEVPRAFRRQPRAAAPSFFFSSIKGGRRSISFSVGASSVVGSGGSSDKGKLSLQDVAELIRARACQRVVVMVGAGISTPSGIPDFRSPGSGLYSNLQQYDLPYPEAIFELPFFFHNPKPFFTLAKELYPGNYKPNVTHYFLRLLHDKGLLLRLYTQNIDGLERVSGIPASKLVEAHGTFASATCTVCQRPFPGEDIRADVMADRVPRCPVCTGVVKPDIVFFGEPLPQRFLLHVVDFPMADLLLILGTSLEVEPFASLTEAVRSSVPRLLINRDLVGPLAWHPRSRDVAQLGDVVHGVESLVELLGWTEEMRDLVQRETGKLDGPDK

[5] = target: T4, NAD-dependent protein deacylase sirtuin-5, mitochondrial (Homo sapiens, UniProt Q9NXA8); experiment: Inhibition of recombinant human SIRT5 at 50 uM using flour de lys succinyl as substrate in presence of NAD+ by fluorometric assay relative to control
Target sequence in this assay (Q9NXA8 37-310 limits assumed): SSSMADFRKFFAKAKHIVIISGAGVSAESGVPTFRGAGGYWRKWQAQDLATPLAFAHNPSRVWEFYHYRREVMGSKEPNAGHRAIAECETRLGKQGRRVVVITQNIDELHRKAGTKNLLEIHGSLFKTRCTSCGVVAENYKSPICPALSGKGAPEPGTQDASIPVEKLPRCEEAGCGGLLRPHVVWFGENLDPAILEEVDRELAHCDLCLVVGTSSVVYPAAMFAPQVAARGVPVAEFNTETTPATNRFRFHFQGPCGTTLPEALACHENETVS

[6] = target: T2, NAD-dependent protein deacetylase sirtuin-2 (Homo sapiens); experiment: as §1, with “SIRT2 (25” for “SIRT1 (133”, “389” for “747”, “100” for “50”; conditions: time 260.0 min
[7] = target: T4, NAD-dependent protein deacylase sirtuin-5, mitochondrial; experiment: Inhibition of SIRT5 (unknown origin)
Target sequence in this assay (Q9NXA8 whole entry): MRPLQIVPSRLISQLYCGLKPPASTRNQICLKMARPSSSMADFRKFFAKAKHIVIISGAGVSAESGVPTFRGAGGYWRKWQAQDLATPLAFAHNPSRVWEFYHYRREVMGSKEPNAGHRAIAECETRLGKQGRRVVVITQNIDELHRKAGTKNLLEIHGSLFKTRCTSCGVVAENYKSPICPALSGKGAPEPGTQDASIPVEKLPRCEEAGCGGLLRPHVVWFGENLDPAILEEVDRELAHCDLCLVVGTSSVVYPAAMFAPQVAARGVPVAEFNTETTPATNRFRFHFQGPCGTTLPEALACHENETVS

[8] = target: T4, NAD-dependent protein deacylase sirtuin-5, mitochondrial; experiment: Competitive inhibition of recombinant human SIRT5 assessed as substrate conversion at 50 uM using ZKsA as substrate in presence of increasing concentration of NAD+ by trypsin-coupled assay
Target sequence in this assay (Q9NXA8 37-310 limits assumed): as the sequence (Q9NXA8 37-310 limits assumed) above

[9] = target: T4, NAD-dependent protein deacylase sirtuin-5, mitochondrial; experiment: Competitive inhibition of recombinant human SIRT5 assessed as substrate conversion at 50 uM using increasing concentration of ZKsA as substrate in presence of NAD+ by trypsin-coupled assay
Target sequence in this assay (Q9NXA8 37-310 limits assumed): as above

[10] = target: T4, NAD-dependent protein deacylase sirtuin-5, mitochondrial; experiment: Inhibition of recombinant human SIRT5 using flour de lys succinyl as substrate in presence of NAD+ by fluorometric assay
Target sequence in this assay (Q9NXA8 whole entry): as the sequence (Q9NXA8 whole entry) above

inhibition [1]: < 10% | inhibition [2]: 16% | inhibition [3]: inactive | inhibition [4]: inactive | inhibition [5]: 62% | inhibition [6]: < 25%
Compound: O=C(O)CCNC(=O)c1ccc(/N=N/c2ccccc2)cc1

Compound: CC1=C2C(=COC(C)C2C)C(O)=C(C(=O)O)C1=O (configuration not stated)
IC50 [7]: 90 µM

inhibition [1]: < 10% | inhibition [2]: 19% | inhibition [5]: 27% | inhibition [8]: inactive | inhibition [9]: inactive
Compound: O=C(O)CCNCc1ccc(/N=N/c2ccc(O)c(C(=O)O)c2)cc1

inhibition [1]: < 10% | inhibition [2]: 21% | inhibition [3]: inactive | inhibition [4]: inactive | inhibition [5]: 63% | inhibition [6]: < 25%
Compound: O=C(O)CCNC(=O)c1ccc(/N=N/c2cccc(C(=O)O)c2)cc1

inhibition [1]: 21% | inhibition [2]: 65%
Compound: NC(=O)c1cccnc1

inhibition [1]: < 10% | inhibition [2]: 11% | IC50 [10]: 5.3 µM | inhibition [5]: 83% | inhibition [8]: inactive | inhibition [9]: inactive | IC50 [7]: 3.9 µM
Compound: O=C(O)CCNC(=O)c1ccc(/N=N/c2ccc(O)c(C(=O)O)c2)cc1 [BALSALAZIDE]

IC50 [7]: 1.6 µM
Compound: CC(C)(Sc1cc(C(C)(C)C)c(O)c(C(C)(C)C)c1)Sc1cc(C(C)(C)C)c(O)c(C(C)(C)C)c1 [PROBUCOL]

Compound: C[C@]12CC[C@@H]3c4ccc(O)cc4C[C@@H](CCCCCCCCC[S+]([O-])CCCC(F)(F)C(F)(F)F)[C@H]3[C@@H]1CC[C@@H]2O (some centres not stated) [FULVESTRANT]
IC50 [7]: 2.6 µM

Compound: Cc1cc(C(C#N)c2ccc(Cl)cc2)c(Cl)cc1NC(=O)c1cc(I)cc(I)c1O (configuration not stated) [CLOSANTEL]
IC50 [7]: 2.7 µM

inhibition [5]: 31%
Compound: CCCNC(=O)c1ccc(/N=N/c2ccc(O)c(C(=O)O)c2)cc1

inhibition [1]: < 10% | inhibition [2]: 26% | inhibition [5]: 73% | inhibition [8]: inactive | inhibition [9]: inactive
Compound: O=C(O)CCNC(=O)c1ccc(/N=N/c2ccc(O)cc2)cc1

inhibition [5]: 24%
Compound: O=C(O)CNC(=S)Nc1ccc(/N=N/c2ccc(O)c(C(=O)O)c2)cc1

inhibition [5]: 33%
Compound: O=C(O)CCOCc1ccc(/N=N/c2ccc(O)c(C(=O)O)c2)cc1

inhibition [5]: 54%
Compound: O=C(O)CCCC(=O)c1ccc(/N=N/c2ccc(O)c(C(=O)O)c2)cc1

inhibition [5]: 39%
Compound: O=C(O)CCCC(O)c1ccc(/N=N/c2ccc(O)c(C(=O)O)c2)cc1 (configuration not stated)

IC50 [7]: 3.6 µM
Compound: C=C1c2cccc(O)c2C(=O)C2=C(O)[C@]3(O)C(=O)C(C(N)=O)=C(O)[C@@H](N(C)C)[C@@H]3[C@@H](O)[C@H]12 [METHACYCLINE]

inhibition [5]: 32%
Compound: NC(=O)c1ccc(/N=N/c2ccc(O)c(C(=O)O)c2)cc1

inhibition [1]: 95% | inhibition [5]: 53%
Compound: Cc1ccc(C(=O)Nc2ccc(S(=O)(=O)O)c3cc(S(=O)(=O)O)cc(S(=O)(=O)O)c23)cc1NC(=O)c1cccc(NC(=O)Nc2cccc(C(=O)Nc3cc(C(=O)Nc4ccc(S(=O)(=O)O)c5cc(S(=O)(=O)O)cc(S(=O)(=O)O)c45)ccc3C)c2)c1

inhibition [5]: 27%
Compound: O=C(O)c1ccc(/N=N/c2ccc(O)c(C(=O)O)c2)cc1

inhibition [5]: 26%
Compound: O=C(O)CCC(=O)Nc1ccc(/N=N/c2ccc(O)c(C(=O)O)c2)cc1

inhibition [5]: 32%
Compound: O=C(O)CCCCc1ccc(/N=N/c2ccc(O)c(C(=O)O)c2)cc1
